This note sets out measurements from PubChem BioAssay (NCI).

Test systems include SNB-75 CNS; HOP-62 NSCLC; RPMI-8226 leukemia; A498 renal; NCI/ADR-RES ovarian; SF-268 CNS; MALME-3M melanoma; UACC-257 melanoma; CAKI-1 renal; SK-MEL-28 melanoma; HS 578T breast; NCI-H226 lung; MOLT-4 leukemia; U251 CNS; HT29 colon; SN12C renal; NCI-H460 lung; UACC-62 melanoma; SNB-19 CNS; COLO 205 colon.
Assay in all cases: growth of human tumour cells (NCI), 48 h

Structures are written as SMILES.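 Results reflect a 48-hour exposure of cells in 96-well plates to compound at five concentrations. TGI is the concentration that stops growth completely.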

Regarding `COc1ccc(/C=C/c2sc3ccccc3[n+]2CCCCI)cc1OC`, the TGI in the assay with SNB-75 CNS, with HOP-62 NSCLC, in the assay on RPMI-8226 leukemia, in the assay on A498 renal, in the assay on NCI/ADR-RES ovarian and in the assay with SF-268 CNS was more than 10 µM each time. Further, the TGI in the assay on MALME-3M melanoma, in the assay with UACC-257 melanoma, in the assay on CAKI-1 renal, with SK-MEL-28 melanoma, in the assay with HS 578T breast and in the assay with NCI-H226 lung was more than 10 µM throughout. The TGI in the assay with MOLT-4 leukemia, in the assay with U251 CNS, in the assay with HT29 colon, in the assay on SN12C renal, in the assay with NCI-H460 lung and with UACC-62 melanoma was more than 10 µM each time. In addition, in the assay with SNB-19 CNS, the TGI is more than 10 µM.
With `Cc1n[nH]c(=O)n1C1CCCC1`, the TGI in the assay on SNB-75 CNS, in the assay with HOP-62 NSCLC, with RPMI-8226 leukemia, in the assay with A498 renal, with NCI/ADR-RES ovarian and in the assay on SF-268 CNS was more than 100 µM each time. Also, the TGI in the assay with MALME-3M melanoma, in the assay on UACC-257 melanoma, in the assay with CAKI-1 renal, in the assay with SK-MEL-28 melanoma, in the assay on COLO 205 colon and in the assay on HS 578T breast was more than 100 µM each time. Besides, the TGI with NCI-H226 lung, in the assay with MOLT-4 leukemia, with U251 CNS, in the assay with HT29 colon, in the assay on SN12C renal and with NCI-H460 lung was more than 100 µM each time. Moreover, the TGI with SNB-19 CNS is more than 100 µM.
Consider `COc1cc(/C=C2/SC(c3ccccc3)N(c3cccc(Cl)c3)C2=O)cc(OC)c1OC` (stereo not given), for which the TGI is more than 100 µM in the assay on HOP-62 NSCLC; 58.3 µM in the assay on RPMI-8226 leukemia; more than 100 µM in the assay with A498 renal; 73.9 µM with NCI/ADR-RES ovarian; more than 100 µM with SF-268 CNS; 96.5 µM in the assay with MALME-3M melanoma. Moreover, the TGI in the assay with UACC-257 melanoma was more than 100 µM; with CAKI-1 renal, more than 100 µM; in the assay with SK-MEL-28 melanoma it was 90.1 µM; with COLO 205 colon it was more than 100 µM; in the assay with HS 578T breast, more than 100 µM; with NCI-H226 lung, more than 100 µM. For the same molecule, the TGI with MOLT-4 leukemia is more than 100 µM; in the assay with U251 CNS, 86.8 µM; in the assay on HT29 colon, 72.6 µM; in the assay on SN12C renal, 37.2 µM; in the assay with NCI-H460 lung it was more than 100 µM; in the assay on UACC-62 melanoma it was more than 100 µM. The TGI with SNB-19 CNS was more than 100 µM.
Turning to `Cn1c(N)c(C(N)=O)[nH]c1=S`, the TGI in the assay on SNB-75 CNS, in the assay on HOP-62 NSCLC, in the assay with RPMI-8226 leukemia, in the assay on A498 renal, in the assay with NCI/ADR-RES ovarian and in the assay with SF-268 CNS was more than 100 µM throughout. In addition, the TGI with MALME-3M melanoma, in the assay on SK-MEL-28 melanoma, in the assay with COLO 205 colon, in the assay with HS 578T breast, with NCI-H226 lung and with MOLT-4 leukemia was more than 100 µM in each case. Also, the TGI with U251 CNS, in the assay with HT29 colon, in the assay on SN12C renal, with NCI-H460 lung, in the assay with UACC-62 melanoma and in the assay with SNB-19 CNS was more than 100 µM in each case.
Regarding `C=[N+](CNC(=O)CNC(=O)C(Cc1ccc([N+](=O)[O-])cc1)NC(=O)OC(C)(C)C)C(=O)CNC(=O)C(Cc1ccc([N+](=O)[O-])cc1)NC(=O)OC(C)(C)C` (stereo not given), the TGI was more than 100 µM in the assay on SNB-75 CNS; more than 100 µM in the assay on HOP-62 NSCLC; 50.4 µM with RPMI-8226 leukemia; more than 100 µM in the assay with A498 renal; more than 100 µM in the assay on NCI/ADR-RES ovarian; 61.8 µM in the assay on SF-268 CNS. In addition, the TGI in the assay with MALME-3M melanoma is more than 100 µM; in the assay on CAKI-1 renal, more than 100 µM; in the assay with SK-MEL-28 melanoma, 72.6 µM; in the assay on COLO 205 colon, more than 100 µM; in the assay with HS 578T breast, more than 100 µM; in the assay on NCI-H226 lung it was more than 100 µM. The TGI is 67.4 µM in the assay with MOLT-4 leukemia; more than 100 µM with U251 CNS; more than 100 µM with HT29 colon; more than 100 µM in the assay on SN12C renal; more than 100 µM in the assay on NCI-H460 lung; 50.1 µM with UACC-62 melanoma. The TGI with SNB-19 CNS was more than 100 µM.
Regarding `C=C1[C@H](OC(=O)C(C)C)[C@]23CC4(O)[C@@H]5[C@@]6(C)CCC[C@]57C([C@@H]2C[C@@]1(O)[C@H](O)[C@@H]73)N4C6`, the TGI with SNB-75 CNS, with HOP-62 NSCLC, in the assay on RPMI-8226 leukemia, in the assay on A498 renal, with NCI/ADR-RES ovarian and in the assay with SF-268 CNS was more than 100 µM throughout. The TGI with MALME-3M melanoma, in the assay on UACC-257 melanoma, in the assay with CAKI-1 renal, with SK-MEL-28 melanoma, with COLO 205 colon and in the assay on HS 578T breast was more than 100 µM each time. Also, the TGI in the assay on NCI-H226 lung, with MOLT-4 leukemia, with U251 CNS, in the assay on HT29 colon, in the assay with NCI-H460 lung and in the assay with UACC-62 melanoma was more than 100 µM throughout. The same molecule showed a TGI in the assay on SNB-19 CNS of more than 100 µM.
Consider `O=c1[nH]cnc2c1sc1nc3ccccc3n12`, for which the TGI with SNB-75 CNS, with HOP-62 NSCLC, with RPMI-8226 leukemia, with A498 renal, in the assay with NCI/ADR-RES ovarian and with SF-268 CNS was more than 100 µM each time. In addition, the TGI in the assay on MALME-3M melanoma, in the assay with UACC-257 melanoma, in the assay with CAKI-1 renal, with SK-MEL-28 melanoma, in the assay with COLO 205 colon and in the assay on HS 578T breast was more than 100 µM in each case. Further, the TGI in the assay with NCI-H226 lung, with MOLT-4 leukemia, with U251 CNS, in the assay on HT29 colon, with UACC-62 melanoma and with SNB-19 CNS was more than 100 µM in each case.
As to `Cc1ncc([N+](=O)[O-])n1CCN(C)C(=O)CCCn1ccnc1[N+](=O)[O-]`, the TGI in the assay on SNB-75 CNS, in the assay with HOP-62 NSCLC, with RPMI-8226 leukemia, with A498 renal, in the assay on NCI/ADR-RES ovarian and in the assay on SF-268 CNS was more than 100 µM in each case. Besides, the TGI in the assay on MALME-3M melanoma, in the assay on UACC-257 melanoma, in the assay with CAKI-1 renal, in the assay with SK-MEL-28 melanoma, with COLO 205 colon and in the assay with HS 578T breast was more than 100 µM in each case. Moreover, the TGI in the assay with NCI-H226 lung, with MOLT-4 leukemia, in the assay on U251 CNS, with HT29 colon, with SN12C renal and in the assay with NCI-H460 lung was more than 100 µM each time. The molecule also registered a TGI in the assay on UACC-62 melanoma of more than 100 µM.
